Measured values as given in patent US20240083857A1, “2-Methyl-Quinazolines” (Bayer Pharma Aktiengesellschaft, priority 2017, published 2024).

How the values were obtained:
[1] = target: human SOS1 (loading of human K-Ras^G12C-GDP with fluorescent GTP-analog) (Homo sapiens, UniProt Q07889); test: Biochemical assay 3: K-Ras^G12C activation assay by hSOS1 (HTRF); details: no GTP; read-out: Assay 3 (KRAS-Activation by SOS no GTP) activity expressed as IC50
[2] = target: K-Ras^G12C : hSOS1 interaction (Homo sapiens, UniProt Q07889); test: Biochemical assay 1: K-Ras^G12C interaction assay with hSOS1 (HTRF); format: binding; details: read-out: Assay 1 (KRAS-SOS Interaction) activity expressed as IC50

Compound: COc1cc2nc(C)nc(NC(C)c3ccc(-c4ccccc4CN4CC(N(C)C)C4)s3)c2cc1OC (stereo not drawn) [Example 319, N-{1-[5-(2-{[3-(dimethylamino)azetidin-1-yl]methyl}phenyl)thiophen-2-yl]ethyl}-6,7-dimethoxy-2-methylquinazolin-4-amine]
- IC50 [1]: 127 nM
- IC50 [2]: 164 nM

Compound: COc1cc2nc(C)nc(NC(C)c3ccc(-c4ccccc4CN4CC(F)(F)C4)s3)c2cc1OC (stereo not drawn) [Example 320, N-[1-(5-{2-[(3,3-difluoroazetidin-1-yl)methyl]phenyl}thiophen-2-yl)ethyl]-6,7-dimethoxy-2-methylquinazolin-4-amine]
- IC50 [1]: 3490 nM
- IC50 [2]: 2260 nM

Compound: COc1cc2nc(C)nc(NC(C)c3ccc(-c4ccccc4CN(C)CC(F)(F)F)s3)c2cc1OC (stereo not drawn) [Example 321, 6,7-di methoxy-2-methyl-N-{1-[5-(2-{[methyl(2,2,2-trifluoroethyl)amino]methyl}phenyl)thiophen-2-yl]ethyl}quinazolin-4-amine]
- IC50 [1]: 12800 nM
- IC50 [2]: 14800 nM

Compound: COc1cc2nc(C)nc(NC(C)c3ccc(-c4ccccc4CN4CC(F)C4)s3)c2cc1OC (stereo not drawn) [Example 322, N-[1-(5-{2-[(3-fluoroazetidin-1-yl)methyl]phenyl}thiophen-2-yl)ethyl]-6,7-dimethoxy-2-methylquinazolin-4-amine]
- IC50 [1]: 268 nM
- IC50 [2]: 408 nM

Compound: COc1cc2nc(C)nc(NC(C)c3ccc(-c4ccc(Cl)cc4CN(C)C)s3)c2cc1OC (stereo not drawn) [Example 323, N-[1-(5-{4-chloro-2-[(dimethylamino)methyl]phenyl}thiophen-2-yl)ethyl]-6,7-dimethoxy-2-methylquinazolin-4-amine]
- IC50 [1]: 66.4 nM
- IC50 [2]: 39.5 nM

Compound: COc1cc2nc(C)nc(NC(C)c3ccc(-c4ccccc4C(C)=O)s3)c2cc1OC (stereo not drawn) [Example 324, 1-[2-(5-{1-[(6,7-dimethoxy-2-methylquinazolin-4-yl)amino]ethyl}thiophen-2-yl)phenyl]ethanone]
- IC50 [1]: 6840 nM
- IC50 [2]: 1290 nM

Compound: COc1cc2nc(C)nc(NC(C)c3ccc(-c4ccccc4OCCN4CCCC4)s3)c2cc1OC (stereo not drawn) [Example 325, 6,7-di methoxy-2-methyl-N-[1-(5-{2-[2-(pyrrolidin-1-yl)ethoxy]phenyl}thiophen-2-yl)ethyl]quinazolin-4-amine]
- IC50 [1]: 438 nM
- IC50 [2]: 228 nM

Compound: COc1cc2nc(C)nc(NC(C)c3cccc4sc(C)cc34)c2cc1OC (stereo not drawn) [Example 330, 6,7-dimethoxy-2-methyl-N-[1-(2-methyl-1-benzothiophen-4-yl)ethyl]quinazolin-4-amine]
- IC50 [1]: 547 nM
- IC50 [2]: 227 nM

Compound: COc1cc2nc(C)nc(NC(C)c3ccnc4sccc34)c2cc1OC (stereo not drawn) [Example 331, 6,7-dimethoxy-2-methyl-N-[1-(thieno[2,3-b]pyridin-4-yl)ethyl]quinazolin-4-amine]
- IC50 [1]: 3170 nM
- IC50 [2]: 919 nM

Compound: COc1cc2nc(C)nc(NC(C)c3cncc4sccc34)c2cc1OC (stereo not drawn) [Example 332, 6,7-dimethoxy-2-methyl-N-[1-(thieno[2,3-c]pyridin-4-yl)ethyl]quinazolin-4-amine]
- IC50 [1]: 11400 nM
- IC50 [2]: 2250 nM

Compound: COc1cc2nc(C)nc(NC(C)c3nccc4sccc34)c2cc1OC (stereo not drawn) [Example 333, 6,7-dimethoxy-2-methyl-N-[1-(thieno[3,2-c]pyridin-4-yl)ethyl]quinazolin-4-amine]
- IC50 [1]: 14800 nM
- IC50 [2]: 13000 nM

Compound: COc1cc2nc(C)nc(N[C@H](C)c3cccc(-c4c(C)n[nH]c4C)c3)c2cc1OC [Example 334, N-{(1R)-1-[3-(3,5-dimethyl-1H-pyrazol-4-yl)phenyl]ethyl}-6,7-dimethoxy-2-methylquinazolin-4-amine]
- IC50 [1]: 1410 nM
- IC50 [2]: 362 nM

Compound: COc1cc2nc(C)nc(N[C@H](C)c3cccc(-c4cn[nH]c4C)c3)c2cc1OC [Example 335, 6,7-dimethoxy-2-methyl-N-{(1R)-1-[3-(5-methyl-1H-pyrazol-4-yl)phenyl]ethyl}quinazolin-4-amine]
- IC50 [1]: 564 nM
- IC50 [2]: 145 nM

Compound: COc1cc2nc(C)nc(N[C@H](C)c3cccc(-c4c(C)noc4C)c3)c2cc1OC [Example 336, N-{(1R)-1-[3-(3,5-dimethyl-1,2-oxazol-4-yl)phenyl]ethyl}-6,7-dimethoxy-2-methyl-quinazolin-4-amine]
- IC50 [1]: 1990 nM
- IC50 [2]: 687 nM

Compound: COc1cc2nc(C)nc(N[C@H](C)c3cccc(-c4ccn[nH]4)c3)c2cc1OC [Example 337, 6,7-dimethoxy-2-methyl-N-{(1R)-1-[3-(1H-pyrazol-5-yl)phenyl]ethyl}quinazolin-4-amine]
- IC50 [1]: 1350 nM
- IC50 [2]: 344 nM

Compound: COc1cc2nc(C)nc(N[C@H](C)c3cccc(-c4cnn(C)c4)c3)c2cc1OC [Example 338, 6,7-dimethoxy-2-methyl-N-{(1R)-1-[3-(1-methyl-1H-pyrazol-4-yl)phenyl]ethyl}quinazolin-4-amine]
- IC50 [1]: 1390 nM
- IC50 [2]: 325 nM

Compound: COc1cc2nc(C)nc(N[C@H](C)c3cccc(-c4ccnn4C)c3)c2cc1OC [Example 339, 6,7-dimethoxy-2-methyl-N-{(1R)-1-[3-(1-methyl-1H-pyrazol-5-yl)phenyl]ethyl}quinazolin-4-amine]
- IC50 [1]: 1990 nM
- IC50 [2]: 815 nM

Compound: COc1cc2nc(C)nc(N[C@H](C)c3cccc(-n4ccnc4)c3)c2cc1OC [Example 340, N-{(1R)-1-[3-(1H-imidazol-1-yl)phenyl]ethyl}-6,7-dimethoxy-2-methylquinazolin-4-amine]
- IC50 [1]: 1390 nM
- IC50 [2]: 344 nM
